#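 Cultured in 96-well plates, cells were exposed to test compound for 48 hours across five concentrations. Definition used: TGI = concentration required for complete inhibition of growth.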
# Columns and labels:
# Assay in all cases: NCI-60 cell line screen, 48 h
# HCT-116 colon = system: HCT-116 colon
# NCI-H23 lung = system: NCI-H23 lung
# SF-268 CNS = system: SF-268 CNS
# EKVX NSCLC = system: EKVX NSCLC
# HL-60(TB) leukemia = system: HL-60(TB) leukemia
# KM20L2 colon = system: KM20L2 colon
# DLD-1 colon = system: DLD-1 colon
# SK-MEL-2 melanoma = system: SK-MEL-2 melanoma
# M14 melanoma = system: M14 melanoma
# HCC-2998 colon = system: HCC-2998 colon
# RXF 393 renal = system: RXF 393 renal
# SNB-75 CNS = system: SNB-75 CNS
# LOX IMVI melanoma = system: LOX IMVI melanoma
# MOLT-4 leukemia = system: MOLT-4 leukemia
# LXFL 529 NSCLC = system: LXFL 529 NSCLC
# A498 renal = system: A498 renal
# MALME-3M melanoma = system: MALME-3M melanoma
# HCT-15 colon = system: HCT-15 colon
# RPMI-8226 leukemia = system: RPMI-8226 leukemia
# SK-OV-3 ovarian = system: SK-OV-3 ovarian
# SF-539 CNS = system: SF-539 CNS
# SK-MEL-28 melanoma = system: SK-MEL-28 melanoma
# SN12C renal = system: SN12C renal
# TK-10 renal = system: TK-10 renal
# HT29 colon = system: HT29 colon
# HOP-62 NSCLC = system: HOP-62 NSCLC
# ACHN renal = system: ACHN renal
# SNB-78 CNS = system: SNB-78 CNS
# DMS 114 small cell lung = system: DMS 114 small cell lung
# SF-295 CNS = system: SF-295 CNS
# OVCAR-3 ovarian = system: OVCAR-3 ovarian
# CCRF-CEM leukemia = system: CCRF-CEM leukemia
# SNB-19 CNS = system: SNB-19 CNS
# UO-31 renal = system: UO-31 renal
# RXF-631 renal = system: RXF-631 renal
# SK-MEL-5 melanoma = system: SK-MEL-5 melanoma
# HOP-18 NSCLC = system: HOP-18 NSCLC
# COLO 205 colon = system: COLO 205 colon
# SW-620 colon = system: SW-620 colon
# OVCAR-4 ovarian = system: OVCAR-4 ovarian
# SR leukemia = system: SR leukemia
# UACC-257 melanoma = system: UACC-257 melanoma
# OVCAR-8 ovarian = system: OVCAR-8 ovarian
# M19-MEL melanoma = system: M19-MEL melanoma
# NCI-H460 lung = system: NCI-H460 lung
# HOP-92 NSCLC = system: HOP-92 NSCLC
# OVCAR-5 ovarian = system: OVCAR-5 ovarian
# NCI-H226 lung = system: NCI-H226 lung
# U251 CNS = system: U251 CNS
# UACC-62 melanoma = system: UACC-62 melanoma
# A549 NSCLC = system: A549 NSCLC
# K-562 leukemia = system: K-562 leukemia
# KM12 colon = system: KM12 colon
# IGROV1 ovarian = system: IGROV1 ovarian
# DMS 273 small cell lung = system: DMS 273 small cell lung
# NCI-H522 lung = system: NCI-H522 lung
# CAKI-1 renal = system: CAKI-1 renal
smiles,measurement,setting,value
CC(C)c1cccc(C(C)C)c1NC(=S)Nc1ccccc1,TGI,HCT-116 colon,> 100 µM
same,TGI,NCI-H23 lung,> 100 µM
same,TGI,SF-268 CNS,> 100 µM
same,TGI,EKVX NSCLC,> 100 µM
same,TGI,HL-60(TB) leukemia,32.4 µM
same,TGI,KM20L2 colon,> 100 µM
same,TGI,DLD-1 colon,> 100 µM
same,TGI,SK-MEL-2 melanoma,> 100 µM
same,TGI,M14 melanoma,> 100 µM
same,TGI,HCC-2998 colon,> 100 µM
same,TGI,RXF 393 renal,> 100 µM
same,TGI,SNB-75 CNS,> 100 µM
same,TGI,LOX IMVI melanoma,> 100 µM
same,TGI,MOLT-4 leukemia,> 100 µM
same,TGI,LXFL 529 NSCLC,> 100 µM
same,TGI,A498 renal,> 100 µM
same,TGI,MALME-3M melanoma,> 100 µM
same,TGI,HCT-15 colon,> 100 µM
same,TGI,RPMI-8226 leukemia,> 100 µM
same,TGI,SK-OV-3 ovarian,> 100 µM
same,TGI,SF-539 CNS,> 100 µM
same,TGI,SK-MEL-28 melanoma,> 100 µM
same,TGI,SN12C renal,> 100 µM
same,TGI,TK-10 renal,> 100 µM
same,TGI,HT29 colon,> 100 µM
same,TGI,HOP-62 NSCLC,> 100 µM
same,TGI,ACHN renal,> 100 µM
same,TGI,SNB-78 CNS,> 100 µM
same,TGI,DMS 114 small cell lung,> 100 µM
same,TGI,SF-295 CNS,> 100 µM
same,TGI,OVCAR-3 ovarian,> 100 µM
same,TGI,CCRF-CEM leukemia,> 100 µM
same,TGI,SNB-19 CNS,> 100 µM
same,TGI,UO-31 renal,> 100 µM
same,TGI,RXF-631 renal,> 100 µM
same,TGI,SK-MEL-5 melanoma,> 100 µM
same,TGI,HOP-18 NSCLC,> 100 µM
same,TGI,COLO 205 colon,> 100 µM
same,TGI,SW-620 colon,> 100 µM
same,TGI,OVCAR-4 ovarian,> 100 µM
same,TGI,SR leukemia,> 100 µM
same,TGI,UACC-257 melanoma,> 100 µM
same,TGI,OVCAR-8 ovarian,> 100 µM
same,TGI,M19-MEL melanoma,> 100 µM
same,TGI,NCI-H460 lung,> 100 µM
same,TGI,HOP-92 NSCLC,> 100 µM
same,TGI,OVCAR-5 ovarian,> 100 µM
same,TGI,NCI-H226 lung,> 100 µM
same,TGI,U251 CNS,> 100 µM
same,TGI,UACC-62 melanoma,> 100 µM
same,TGI,A549 NSCLC,> 100 µM
same,TGI,K-562 leukemia,> 100 µM
same,TGI,KM12 colon,> 100 µM
same,TGI,IGROV1 ovarian,> 100 µM
same,TGI,DMS 273 small cell lung,> 100 µM
CC(C)=CCC/C(C)=C/CC/C(C)=C/C(O)c1ccccc1 (configuration not stated),TGI,HCT-116 colon,32.2 µM
same,TGI,NCI-H23 lung,55.8 µM
same,TGI,SF-268 CNS,35.3 µM
same,TGI,EKVX NSCLC,34.3 µM
same,TGI,HL-60(TB) leukemia,43.8 µM
same,TGI,KM20L2 colon,36 µM
same,TGI,DLD-1 colon,34.4 µM
same,TGI,SK-MEL-2 melanoma,34.9 µM
same,TGI,M14 melanoma,32.7 µM
same,TGI,LOX IMVI melanoma,35.9 µM
same,TGI,LXFL 529 NSCLC,31.8 µM
same,TGI,A498 renal,34.2 µM
same,TGI,MALME-3M melanoma,34.5 µM
same,TGI,HCT-15 colon,32.8 µM
same,TGI,RPMI-8226 leukemia,49.5 µM
same,TGI,SK-OV-3 ovarian,36.5 µM
same,TGI,SN12C renal,33.9 µM
same,TGI,TK-10 renal,88.4 µM
same,TGI,HT29 colon,32.9 µM
same,TGI,HOP-62 NSCLC,34.3 µM
same,TGI,ACHN renal,31.2 µM
same,TGI,SNB-78 CNS,68 µM
same,TGI,DMS 114 small cell lung,39.4 µM
same,TGI,SF-295 CNS,33.8 µM
same,TGI,OVCAR-3 ovarian,36.3 µM
same,TGI,NCI-H522 lung,> 10 µM
same,TGI,CAKI-1 renal,> 10 µM
same,TGI,CCRF-CEM leukemia,52.4 µM
same,TGI,SNB-19 CNS,35.3 µM
same,TGI,UO-31 renal,36.3 µM
same,TGI,RXF-631 renal,34.1 µM
same,TGI,SK-MEL-5 melanoma,30.2 µM
same,TGI,COLO 205 colon,35.6 µM
same,TGI,SW-620 colon,38.8 µM
same,TGI,OVCAR-4 ovarian,> 10 µM
same,TGI,SR leukemia,44.1 µM
same,TGI,UACC-257 melanoma,35.6 µM
same,TGI,OVCAR-8 ovarian,40.6 µM
same,TGI,M19-MEL melanoma,34.6 µM
same,TGI,NCI-H460 lung,35.3 µM
same,TGI,OVCAR-5 ovarian,32.5 µM
same,TGI,NCI-H226 lung,46.2 µM
same,TGI,U251 CNS,33.5 µM
same,TGI,UACC-62 melanoma,30.9 µM
same,TGI,K-562 leukemia,> 100 µM
same,TGI,KM12 colon,51.8 µM
same,TGI,IGROV1 ovarian,37.2 µM
